Reference: US10392630B2, “Plants having increased tolerance to herbicides” (BASF AGRO B.V., priority 2013, dated 2019)
Positions count from the first letter of the chain named.

What was measured:
Assay in all cases: biochemical
[1] = biological target: T1, Amaranthus mutant PPO (AMARE) (Amaranthus tuberculatus, UniProt Q0NZW9, F420M/R128I)
T1 sequence (Q0NZW9 1-534 R128I/F420M): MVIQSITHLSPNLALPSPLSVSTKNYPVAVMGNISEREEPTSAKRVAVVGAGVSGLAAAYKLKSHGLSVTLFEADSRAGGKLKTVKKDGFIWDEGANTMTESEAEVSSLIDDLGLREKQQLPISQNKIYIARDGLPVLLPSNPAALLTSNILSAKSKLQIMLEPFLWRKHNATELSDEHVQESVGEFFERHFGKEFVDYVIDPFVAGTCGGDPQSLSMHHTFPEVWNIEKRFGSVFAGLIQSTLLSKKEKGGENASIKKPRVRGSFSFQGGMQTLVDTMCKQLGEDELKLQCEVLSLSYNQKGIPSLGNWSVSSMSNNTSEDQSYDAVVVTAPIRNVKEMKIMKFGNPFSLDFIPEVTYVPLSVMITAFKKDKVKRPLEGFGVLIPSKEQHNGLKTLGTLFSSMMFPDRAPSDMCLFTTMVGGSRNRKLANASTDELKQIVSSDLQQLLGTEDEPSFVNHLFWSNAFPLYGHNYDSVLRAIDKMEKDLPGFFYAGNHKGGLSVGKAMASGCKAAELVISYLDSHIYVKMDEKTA

[2] = biological target: T2, Amaranthus mutant PPO (AMARE) (Amaranthus tuberculatus, UniProt Q0NZW9, F420I/R128A)
T2 sequence (Q0NZW9 1-534 R128A/F420I): T1 sequence (Q0NZW9 1-534 R128I/F420M) with I128A, M420I

[3] = biological target: T3, Amaranthus mutant PPO (AMARE) (Amaranthus tuberculatus, UniProt Q0NZW9, F420V/R128A)
T3 sequence (Q0NZW9 1-534 R128A/F420V): T1 sequence (Q0NZW9 1-534 R128I/F420M) with I128A, M420V

[4] = biological target: T4, Amaranthus mutant PPO (AMARE) (Amaranthus tuberculatus, UniProt Q0NZW9, F420I/R128I)
T4 sequence (Q0NZW9 1-534 R128I/F420I): T1 sequence (Q0NZW9 1-534 R128I/F420M) with M420I

[5] = biological target: T5, Amaranthus mutant PPO (AMARE) (Amaranthus tuberculatus, UniProt Q0NZW9, F420I/R128L)
T5 sequence (Q0NZW9 1-534 R128L/F420I): T1 sequence (Q0NZW9 1-534 R128I/F420M) with I128L, M420I

SMILES: CC(C)N(C)S(=O)(=O)NC(=O)c1cc(-n2c(=O)cc(C(F)(F)F)n(C)c2=O)c(F)cc1Cl [saflufenacil]
- IC50 [1]: > 10000 nM
- IC50 [2]: > 10000 nM
- IC50 [3]: > 10000 nM
- IC50 [4]: > 10000 nM
- IC50 [5]: > 10000 nM

SMILES: C#CCN1C(=O)C(F)(F)Oc2cc(F)c(-n3c(=O)n(C)c(=S)n(C)c3=O)cc21 [BAS 850H]
- IC50 [1]: 246 nM
- IC50 [2]: 24.6 nM
- IC50 [3]: 25 nM
- IC50 [4]: 433 nM
- IC50 [5]: 1230 nM
